According to patent publication US20260193317A1, “COMBINATION THERAPY WITH ACTRIIB RECEPTOR VARIANTS AND GLP-1 AGONISTS” (35PHARMA Inc., priority 2023, published 2026):

How the values were obtained:
BMP-10 [1] = molecular target: T1, BMP-10 (Homo sapiens, UniProt O95393); assay: Small-scale BMP-10 BMP-reporter cell-based assay, single concentration; details: […] protein, 40 ng/mL BMP-10
T1 sequence (O95393 317-424): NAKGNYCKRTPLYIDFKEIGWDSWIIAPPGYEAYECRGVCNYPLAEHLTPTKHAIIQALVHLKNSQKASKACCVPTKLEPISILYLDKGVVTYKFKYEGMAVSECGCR
Procedure: Characterization of the BMP-9 and BMP-10 inhibition potency (IC50) of the fusion proteins was performed using a second cell-based reporter assay. Human hepatic HepG2 cells were transfected with a SEAP-encoding plasmid, in which SEAP expression is under the control of the murine Id1 promoter. A stable pool was generated from this transfection. Cells were grown in EMEM, containing 10% heat-inactivated FBS and 200 μg/mL zeocin (hereafter, “HepG2 growth medium”). […] For all assays, cells were seeded in 96-well plates at a confluence of 100,000 cells per well in HepG2 growth medium. Cells were left to attach for 10 minutes at RT prior to being transferred to a 37° C. incubator (5% CO2) overnight. […] At the end of the incubation, absorbance was read at 650 nm. […]
Small-scale testing of ActRIIB-ECD fusion proteins. […] After 7 days, the supernatant was harvested, clarified, and the amount of expressed protein in each well was quantified using standard methods. The potency of each agent for inhibition of activin A, BMP-9 and BMP-10 was determined in three separate assays.
To determine potency on BMP-10, the same BMP-reporter cell line was used as described above. […] Results are expressed as a % of the signal obtained with the cytokine alone. […]

BMP-10 [2] = molecular target: T1, BMP-10; assay: BMP-10 binding by bio-layer interferometry (BLI); details: single concentration 12.5 nM BMP-10
Procedure: To determine potency on BMP-10, the same BMP-reporter cell line was used as described above. A final concentration of 2.5 nM of each expressed protein was tested in the presence of 40 ng/mL of BMP-10 (R&D #2926-BP). In this assay, a loss of signal indicates neutralization of BMP-10 by the exemplary agent. Results are expressed as a % of the signal obtained with the cytokine alone. A separate assay was used to estimate BMP-10 binding, using bio-layer interferometry (BLI) on a Gator® Plus instrument (Gator Bio, Palo Alto, USA). An anti-Human IgG Fc Gen II probe (#160024, Gator Bio) was loaded with expressed proteins in CHO supernatants, following which BMP-10 binding kinetics (single concentration, 12.5 nM) were assessed.

activin A = molecular target: T2, activin A (Homo sapiens, UniProt P08476); assay: Small-scale activin A ELISA with CHO supernatants; details: 1 μg/mL protein, 30 ng/mL activin A, loss of signal = binding
T2 sequence (P08476 311-426): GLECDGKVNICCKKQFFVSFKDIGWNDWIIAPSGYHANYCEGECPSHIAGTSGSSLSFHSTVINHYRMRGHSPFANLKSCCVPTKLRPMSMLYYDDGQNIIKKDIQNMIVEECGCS
Procedure: (§1) Small-scale testing of ActRIIB-ECD fusion proteins. Additional investigation of a series of exemplary agents was performed using proteins expressed in CHO cells. Briefly, DNA encoding the ActRIIB-ECD-Fc fusion constructs was transfected in cells seeded in 12-well plates in a final volume of 1 ml. After 7 days, the supernatant was harvested, clarified, and the amount of expressed protein in each well was quantified using standard methods. The potency of each agent for inhibition of activin A, BMP-9 and BMP-10 was determined in three separate assays.
The next day, the plate was washed three times with buffer (Biolegend #421601). […] Expressed proteins in the supernatants described above were diluted to 2 μg/mL in assay diluent (0.5% BSA, 0.05% tween-20 in PBS), mixed 1:1 with recombinant human activin A (R&D #338-AC, 60 ng/mL, diluted in assay diluent). Complexes were immediately added to the 96-well plate in technical duplicates and incubated for 1 h at RT (concentration of expressed protein and activin A on the plate were 1 μg/mL and 30 ng/mL, respectively). […] In this assay, a loss of signal indicates binding of the exemplary agent to activin A, which prevents activin A binding to the anti-activin A antibody on the plate. Results are expressed as a % of the signal obtained with wild-type ActRIIB-Fc (P75).

BMP-9 = molecular target: T3, BMP-9 (Homo sapiens, UniProt Q9UK05); assay: Small-scale BMP-9 ELISA with CHO supernatants; format: binding; details: BMP-9 10 ng/mL
T3 sequence (Q9UK05 320-429): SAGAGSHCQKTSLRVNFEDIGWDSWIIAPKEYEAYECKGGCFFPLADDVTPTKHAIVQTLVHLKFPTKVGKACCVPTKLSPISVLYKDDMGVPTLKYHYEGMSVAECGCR
Procedure: as §1
The next day, the plate was washed three times. […] Expressed proteins in the supernatants were diluted 1 in 2 in assay diluent (0.5% BSA, 0.05% tween-20 in PBS) and 100 μl was added to the 96-well plate in technical duplicates. After a 1.5-hour incubation at RT, the plate was washed three times. […] In this assay, a loss of signal indicates less binding of the exemplary agent to BMP-9. Results are expressed as a % of the signal obtained with wild-type ActRIIB-Fc (P75).

[3] = Single subcutaneous injection in CD-1 mice: body weight; format: in vivo; details: CD-1 male mice, single s.c. injection; P1229 50 mg/kg, semaglutide 2 mg/kg
[4] = Coformulation of P1372 and semaglutide: weight and body composition in mice (FIG. 18); format: in vivo
DIO mice = assay: Body composition in high fat diet mice, alone and in combination with incretin mimetics; format: in vivo; details: for Fat mass (% change from baseline) / Lean mass (% change from baseline): as E44, NMR
Procedure: Experiments were performed in vivo to investigate the potential for additive or synergistic effects between exemplary ActRIIB-ECD polypeptide constructs and incretin mimetics.

[5] = tested on: follicle-stimulating hormone (FSH); assay: Circulating FSH levels in CD-1 mice; format: in vivo; details: single s.c. injection, P1229 50 mg/kg, semaglutide 2 mg/kg
Procedure: Finally, circulating FSH levels were assessed throughout the study (FIG. 20D). […] This confirms that the expected pharmacodynamic effect of P1229 was not altered in the context of the co-formulation.

P444: WT hActRIIA, 3 aa linker (GGG), IgG1 Fc; SEQ ID 173 [reference compound]
BMP-10 neutralization, signal relative to BMP-10 alone (BMP-10 [1]): less neutralization (i.e., greater signal) than P75 | BMP-10 KD by bio-layer interferometry (BMP-10 [2]): higher KD (lower affinity) than P75 | activin A binding, ELISA signal relative to P75 (activin A): comparable activin A binding profile to P75 | BMP-9 binding, ELISA signal relative to P75 (BMP-9): near undetectable binding to BMP-9

semaglutide [reference compound]
body weight [3]: decreased body weight | lean muscle mass ([4]; 3 weeks): significant loss of lean muscle mass | total weight loss ([4]; 3 weeks after treatment): significant weight loss | Body weight (% change from baseline) (DIO mice; DIO mice, 21 days s.c., P1307 20 mg/kg weekly, P1229 40 mg/kg twice weekly, semaglutide 40 μg/kg daily, tirzepatide 45 μg/kg daily, alone or combined): −17.5% | visceral, epididymal, pericardial, peri-renal, and retroperitoneal white adipose tissue weights (DIO mice; DIO mice, D21): significantly decreased all white adipose tissue weights | gastrocnemius and tibialis anterior weights (DIO mice; DIO mice, D21, P1229 with or without caloric restriction): no significant effect on muscle weights | Fat mass (% change from baseline) (DIO mice): −30.3% | Lean mass (% change from baseline) (DIO mice): −10.6% | Fat mass (% change from baseline) (DIO mice; listed as semaglutide): −30.3% | Lean mass (% change from baseline) (DIO mice; listed as semaglutide): −10.6% | decrease of circulating FSH levels [5]: did not show a significant effect
